Test results reported in patent US8247211B2, “Glycopeptide antibiotics” (American Cyanamid Company, priority 2001, dated 2012).
In brackets after ≈: the same amount, converted by molar mass.

How the values were obtained:
Experiment in all cases: In vitro antibacterial evaluation: minimum inhibitory concentration (MIC), broth dilution method
Format in all cases: cell-based
Enterococcus sp. = conditions: 18 hours at 35° C.
Method in brief: (§1)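 Values are minimum inhibitory concentrations, meaning the smallest antibiotic concentration that stops growth of the organism. They come from broth dilution in Muller-Hinton II […] per NCCLS guidance (M7-A2), using 5×10^5 CFU/mL and concentrations from 64 to 0.06 μg/mL.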

Escherichia coli = conditions: 18 hours at 35° C.
Method in brief: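 NCCLS M7-A2 broth dilution with Mueller-Hinton II, testing 64-0.06 μg/mL antibiotic against 5×10^5 CFU/mL inocula. Test strains include recent methicillin-, penicillin- or vancomycin-resistant clinical isolates. MIC is the lowest concentration preventing growth.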

Staphylococcus sp. = test system: Staphylococcus sp.
Method in brief: as §1

Streptococcus sp. = conditions: 18 hours at 35° C.
Method in brief: as §1

[1] = broth dilution, inoculum 5×10^5 CFU/mL

MIC Enterococcus avium (GC 4558) (Enterococcus sp.; Enterococcus avium (GC 4558)): 8 mg/L (≈ 5.82 µM) | MIC Enterococcus faecalis (ATCC 29212) (Enterococcus sp.; Enterococcus faecalis (ATCC 29212)): 8 mg/L (≈ 5.82 µM) | MIC Enterococcus faecalis (GC 2242) (Enterococcus sp.; Enterococcus faecalis (GC 2242)): 4 mg/L (≈ 2.91 µM) | MIC Enterococcus faecalis (GC 2691) (Enterococcus sp.; Enterococcus faecalis (GC 2691)): 8 mg/L (≈ 5.82 µM) | MIC Enterococcus faecalis (GC 3059) (Enterococcus sp.; Enterococcus faecalis (GC 3059)): 8 mg/L (≈ 5.82 µM) | MIC Enterococcus faecalis (GC 4552) (Enterococcus sp.; Enterococcus faecalis (GC 4552)): 8 mg/L (≈ 5.82 µM) | MIC Enterococcus faecalis (GC 4553) (Enterococcus sp.; Enterococcus faecalis (GC 4553)): 8 mg/L (≈ 5.82 µM) | MIC Enterococcus faecalis (GC 4554) (Enterococcus sp.; Enterococcus faecalis (GC 4554)): 8 mg/L (≈ 5.82 µM) | MIC Enterococcus faecalis (GC 6189) (Enterococcus sp.; Enterococcus faecalis (GC 6189)): 8 mg/L (≈ 5.82 µM) | MIC Enterococcus faecium (GC 2243) (Enterococcus sp.; Enterococcus faecium (GC 2243)): 8 mg/L (≈ 5.82 µM) | MIC Enterococcus faecium (GC 4556) (Enterococcus sp.; Enterococcus faecium (GC 4556)): 4 mg/L (≈ 2.91 µM) | MIC Enterococcus faecium (GC 4557) (Enterococcus sp.; Enterococcus faecium (GC 4557)): 4 mg/L (≈ 2.91 µM) | MIC Enterococcus avium (GC 4558) (Enterococcus sp.; [1]): 8 mg/L (≈ 5.82 µM) | MIC Enterococcus faecalis (ATCC 29212) (Enterococcus sp.; [1]): 8 mg/L (≈ 5.82 µM) | MIC Enterococcus faecalis (GC 2242) (Enterococcus sp.; [1]): 4 mg/L (≈ 2.91 µM) | MIC Enterococcus faecalis (GC 2691) (Enterococcus sp.; [1]): 8 mg/L (≈ 5.82 µM) | MIC Enterococcus faecalis (GC 3059) (Enterococcus sp.; [1]): 8 mg/L (≈ 5.82 µM) | MIC Enterococcus faecalis (GC 4552) (Enterococcus sp.; [1]): 8 mg/L (≈ 5.82 µM) | MIC Enterococcus faecalis (GC 4553) (Enterococcus sp.; [1]): 8 mg/L (≈ 5.82 µM) | MIC Enterococcus faecalis (GC 4554) (Enterococcus sp.; [1]): 8 mg/L (≈ 5.82 µM) | MIC Enterococcus faecalis (GC 6189) (Enterococcus sp.; [1]): 8 mg/L (≈ 5.82 µM) | MIC Enterococcus faecium (GC 2243) (Enterococcus sp.; [1]): 8 mg/L (≈ 5.82 µM) | MIC Enterococcus faecium (GC 4556) (Enterococcus sp.; [1]): 4 mg/L (≈ 2.91 µM) | MIC Enterococcus faecium (GC 4557) (Enterococcus sp.; [1]): 4 mg/L (≈ 2.91 µM) | MIC Escherichia coli (ATCC 25922) (Escherichia coli; Escherichia coli (ATCC 25922)): 64 mg/L (≈ 46.5 µM) | MIC Escherichia coli (GC 4559) (Escherichia coli; Escherichia coli (GC 4559)): 32 mg/L (≈ 23.3 µM) | MIC Escherichia coli (GC 4560) (Escherichia coli; Escherichia coli (GC 4560)): 2 mg/L (≈ 1.45 µM) | MIC Staphylococcus aureus (ATCC 29213) (Staphylococcus sp.; strain ATCC 29213): 1 mg/L (≈ 0.727 µM) | MIC Staphylococcus aureus (GC 1131) (Staphylococcus sp.; strain GC 1131): 2 mg/L (≈ 1.45 µM) | MIC Staphylococcus aureus (GC 3051) (Staphylococcus sp.; strain GC 3051): 2 mg/L (≈ 1.45 µM) | MIC Staphylococcus aureus (GC 3053) (Staphylococcus sp.; strain GC 3053): 4 mg/L (≈ 2.91 µM) | MIC Staphylococcus aureus (GC 4541) (Staphylococcus sp.; strain GC 4541): 1 mg/L (≈ 0.727 µM) | MIC Staphylococcus aureus (GC 4542) (Staphylococcus sp.; strain GC 4542): 1 mg/L (≈ 0.727 µM) | MIC Staphylococcus aureus-SMITH (GC 4543) (Staphylococcus sp.; strain GC 4543): 2 mg/L (≈ 1.45 µM) | MIC Staphylococcus aureus (GC 4544) (Staphylococcus sp.; strain GC 4544): 2 mg/L (≈ 1.45 µM) | MIC Staphylococcus aureus (GC 4545) (Staphylococcus sp.; strain GC 4545): 1 mg/L (≈ 0.727 µM) | MIC Coagulase Negative Staphylococcus (GC 4547) (Staphylococcus sp.; strain GC 4547): 2 mg/L (≈ 1.45 µM) | MIC Coagulase Negative Staphylococcus (GC 4548) (Staphylococcus sp.; strain GC 4548): 1 mg/L (≈ 0.727 µM) | MIC Coagulase Negative Staphylococcus (GC 4549) (Staphylococcus sp.; strain GC 4549): 1 mg/L (≈ 0.727 µM) | MIC Coagulase Negative Staphylococcus (GC 4551) (Staphylococcus sp.; strain GC 4551): 2 mg/L (≈ 1.45 µM) | MIC Coagulase Negative Staphylococcus (GC 6257) (Staphylococcus sp.; strain GC 6257): 1 mg/L (≈ 0.727 µM) | MIC Streptococcus agalactiae (GC 4564) (Streptococcus sp.; Streptococcus agalactiae (GC 4564)): 1 mg/L (≈ 0.727 µM) | MIC Streptococcus pneumoniae (ATCC 6301) (Streptococcus sp.; Streptococcus pneumoniae (ATCC 6301)): 0.5 mg/L (≈ 0.364 µM) | MIC Streptococcus pneumoniae (GC 1894) (Streptococcus sp.; Streptococcus pneumoniae (GC 1894)): 0.12 mg/L (≈ 0.0872 µM) | MIC Streptococcus pneumoniae (GC 4565) (Streptococcus sp.; Streptococcus pneumoniae (GC 4565)): 0.25 mg/L (≈ 0.182 µM) | MIC Streptococcus pyogenes (GC 4563) (Streptococcus sp.; Streptococcus pyogenes (GC 4563)): 0.5 mg/L (≈ 0.364 µM) | MIC Streptococcus agalactiae (GC 4564) (Streptococcus sp.; [1]): 1 mg/L (≈ 0.727 µM) | MIC Streptococcus pneumoniae (ATCC 6301) (Streptococcus sp.; [1]): 0.5 mg/L (≈ 0.364 µM) | MIC Streptococcus pneumoniae (GC 1894) (Streptococcus sp.; [1]): 0.12 mg/L (≈ 0.0872 µM) | MIC Streptococcus pneumoniae (GC 4565) (Streptococcus sp.; [1]): 0.25 mg/L (≈ 0.182 µM) | MIC Streptococcus pyogenes (GC 4563) (Streptococcus sp.; [1]): 0.5 mg/L (≈ 0.364 µM)
Structure (SMILES): CC(c1ccccc1)C1NC(=O)CNC(=O)C(CO)NC(=O)C(C(O)C2CNC(=N)N2C2OC(CO)C(O)C(O)C2O)NC(=O)C(C(O)C2CNC(=N)N2)NC(=O)C(Cc2ccc(OC3OC(CO)C(OC4OC5COC6(CCCCC6)OC5C(O)C4O)C(O)C3O)cc2)NC1=O (stereo not drawn) [Example 203, Cyclo[glycyl-β-methylphenylalanyl-O-[4-O-(4,6-O-cyclohexylidene-4-O-hexopyranosyl)hexopyranosyl]tyrosyl-3-(2-iminoimidazolidin-4-yl)seryl-3-(3-hexopyranosyl-2-iminoimidazolidin-4-yl)serylseryl]]
MIC Staphylococcus haemolyticus (GC 4546) (Staphylococcus sp.; strain GC 4546): 1 mg/L (≈ 0.727 µM)
